We go through 19 compounds from US12264134B2 (Merck Sharp & Dohme LLC, priority 2018, dated 2025).

The assay concerns the target IDO1 (Homo sapiens, UniProt P14902). The assay is described as follows: IDO1 Cellular Assay in HeLa Cells Stimulated with IFNγ. The conditions noted are these: read-out: HeLa Cell Potency, IC50. In kind it is cell-based.

pIC50: −log10 of the molar value.

Sequence of IDO1 (P14902 whole entry): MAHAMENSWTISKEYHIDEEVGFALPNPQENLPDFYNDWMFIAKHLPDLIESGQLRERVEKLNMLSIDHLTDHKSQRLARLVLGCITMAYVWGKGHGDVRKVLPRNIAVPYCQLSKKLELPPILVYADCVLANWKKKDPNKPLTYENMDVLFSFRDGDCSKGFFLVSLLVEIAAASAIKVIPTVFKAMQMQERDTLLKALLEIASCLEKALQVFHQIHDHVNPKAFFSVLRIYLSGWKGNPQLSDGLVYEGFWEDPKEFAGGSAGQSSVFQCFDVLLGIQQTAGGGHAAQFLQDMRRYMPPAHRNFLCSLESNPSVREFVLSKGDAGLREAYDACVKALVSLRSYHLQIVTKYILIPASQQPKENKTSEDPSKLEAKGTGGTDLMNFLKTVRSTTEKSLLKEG

What is called pIC50 is the negative decadic logarithm of the IC50, by convention in mol/L. Regarding `Cc1cccc(N2CCN(C(=O)Cn3nc(C(=O)N4CC5CCC4CO5)c4c3CCC4)CC2)c1C` (stereo not shown) [Example 105, 1-[4-(2,3-dimethylphenyl)piperazin-1-yl]-2-[3-(2-oxa-5-azabicyclo[2.2.2]octane-5-carbonyl)-5,6-dihydrocyclopenta[c]pyrazol-1(4H)-yl]ethan-1-one], the pIC50 is 7.46.
Take `Cc1ccc(N2CCN(C(=O)Cn3nc(C(=O)N4C[C@@H](C)O[C@@H](C)C4)c4c3CCC4)CC2)cc1F` [Example 64, 2-{3-[(2R,6S)-2,6-dimethylmorpholine-4-carbonyl]-5,6-dihydrocyclopenta[c]pyrazol-1(4H)-yl}-1-[4-(3-fluoro-4-methylphenyl)piperazin-1-yl]ethan-1-one]: the pIC50 was 7.52.
`Cc1cccc(N2CCN(C(=O)Cn3nc(C(=O)N4CC[C@H](O)[C@H](F)C4)c4c3C(F)(F)CCC4)CC2)c1C` [Example 20, 2-(7,7-Difluoro-3-((3R,4S)-3-fluoro-4-hydroxypiperidine-1-carbonyl)-4,5,6,7-tetrahydro-1H-indazol-1-yl)-1-(4-(2,3-dimethylphenyl)piperazin-1-yl)ethanone]: the pIC50 is 6.42.
The value for `O=C(Cn1nc(C(=O)N2CC[C@H](O)[C@H](F)C2)c2c1CCC2)N1CCN(C2CCCc3ccccc32)CC1` (single isomer, unassigned) [Example 426] was 6.52; that for `O=C(Cn1nc(C(=O)N2CCC(O)CC2)c2c1CCC2)N1CCN(C2CCc3ccccc32)CC1` (stereo not shown) [Example 435, 1-(4-(2,3-dihydro-1H-inden-1-yl)piperazin-1-yl)-2-(3-(4-hydroxypiperidine-1-carbonyl)-5,6-dihydrocyclopenta[c]pyrazol-1(4H)-yl)ethanone] was 6.58.
The value for `C[C@@H]1CN(C(=O)c2nn(CC(=O)N3CCN(c4ccc(Cl)cc4Cl)CC3)c3c2CCC3)C[C@H](C)O1` [Example 67, 1-[4-(2,4-dichlorophenyl)piperazin-1-yl]-2-{3-[(2R,6S)-2,6-dimethylmorpholine-4-carbonyl]-5,6-dihydrocyclopenta[c]pyrazol-1(4H)-yl}ethan-1-one] was 6.88; that for `O=C(Cn1nc(C(=O)N2CCC(O)CC2)c2c1CCC2)N1CCN(C2CCCc3ccccc32)CC1` (single isomer, unassigned) [Example 429] was 6.74; that for `Cc1cccc(N2CCN(C(=O)Cn3nc(C(=O)N4CC[C@H](O)[C@H](F)C4)c4c3CCCCC4)CC2)c1C` [Example 412, 1-(4-(2,3-dimethylphenyl)piperazin-1-yl)-2-(3-((3R,4S)-3-fluoro-4-hydroxypiperidine-1-carbonyl)-5,6,7,8-tetrahydrocyclohepta[c]pyrazol-1(4H)-yl)ethanone] was 8.27.
To `CC(=O)NC1CCN(C(=O)c2nn(CC(=O)N3CCN(c4cccc(C)c4Cl)CC3)c3c2CCCC3)CC1` [Example 453, N-(1-(1-(2-(4-(2-chloro-3-methylphenyl)piperazin-1-yl)-2-oxoethyl)-4,5,6,7-tetra hydro-1H-indazole-3-carbonyl)piperidin-4-yl) acetamide] belongs 9.23; to `Cc1c(F)ccc(N2CCN(C(=O)Cn3nc(C(=O)N4CCC(F)(CO)CC4)c4c3CCCC4)CC2)c1C` [Example 458, 1-(4-(4-fluoro-2,3-dimethylphenyl)piperazin-1-yl)-2-(3-(4-fluoro-4-(hydroxy-methyl)piperidine-1-carbonyl)-4,5,6,7-tetrahydro-1H-indazol-1-yl)ethanone], 9.02; to `Cc1cccc(N2CCN(C(=O)Cn3nc(C(=O)N4CCC5(CC4)CN(C)C(=O)O5)c4c3CCC4)CC2)c1C` [Example 81, 8-(1-(2-(4-(2,3-dimethylphenyl)piperazin-1-yl)-2-oxoethyl)-1,4,5,6-tetrahydrocyclopenta[c]pyrazole-3-carbonyl)-3-methyl-1-oxa-3,8-diazaspiro[4.5]decan-2-one], 8.24.
In the case of `Cc1cccc(N2CCN(C(=O)Cn3nc(C(=O)N4CCOC(CO)C4)c4c3CCC4)CC2)c1C` (stereo not shown) [Example 103, 1-[4-(2,3-dimethylphenyl)piperazin-1-yl]-2-{3-[2-(hydroxymethyl)morpholine-4-carbonyl]-5,6-dihydrocyclopenta[c]pyrazol-1(4H)-yl}ethan-1-one], the pIC50 was 7.74.
On to `Cc1cccc(N2CCN(C(=O)Cn3nc(C(=O)N4CCC(CN)CC4)c4c3CCC4)CC2)c1C` [Example 180, 2-{3-[4-(aminomethyl)piperidine-1-carbonyl]-5,6-dihydrocyclopenta[c]pyrazol-1(4H)-yl}-1-[4-(2,3-dimethylphenyl)piperazin-1-yl]ethan-1-one], for which the pIC50 is 7.94.
To `Cc1cccc(N2CCN(C(=O)Cn3nc(C(=O)N4C[C@@H](C)O[C@@H](C)C4)c4c3C3CC3C4)CC2)c1C` (stereo partly drawn) [Example 311, 2-{3-[(2R,6S)-2,6-dimethylmorpholine-4-carbonyl]-4,4a,5,5a-tetrahydro-1H-cyclopropa[4,5]cyclopenta[1,2-c]pyrazol-1-yl}-1-[4-(2,3-dimethylphenyl)piperazin-1-yl]ethan-1-one] belongs 8.36.
For `Cc1c(Cl)cccc1N1CCN(C(=O)Cn2nc(C(=O)N3CCC(NCCO)CC3)c3c2C[C@H]2C[C@@H]32)C2(CC2)C1` [Example 313, 1-[7-(3-chloro-2-methylphenyl)-4,7-diazaspiro[2.5]octan-4-yl]-2-[(3bR,4aR)-3-{4-[(2-hydroxyethyl)amino]piperidine-1-carbonyl}-3b,4,4a,5-tetrahydro-1H-cyclopropa[3,4]cyclopenta[1,2-c]pyrazol-1-yl]ethan-1-one], the pIC50 is 7.17.
With `Cc1cccc(N2CCN(C(=O)Cn3nc(C(=O)N4CCCC4)c4c3CC(C)(C)CC4)CC2)c1C` [Example 3, 1-[4-(2,3-dimethylphenyl)piperazin-1-yl]-2-[6,6-dimethyl-3-(pyrrolidine-1-carbonyl)-5,7-dihydro-4H-indazol-1-yl]ethanone], the pIC50 is 6.89.
As for `CNC(=O)C1CCN(C(=O)c2nn(CC(=O)N3CCN(c4cccc(C)c4C)CC3)c3c2[C@@H]2C[C@@H]2C3)CC1` [Example 254, 1-[(3bR,4aR)-1-{2-[4-(2,3-dimethylphenyl)piperazin-1-yl]-2-oxoethyl}-3b,4,4a,5-tetrahydro-1H-cyclopropa[3,4]cyclopenta[1,2-c]pyrazol-3-carbonyl]-N-methylpiperidine-4-carboxamide], the pIC50 is 8.77.
To `C[C@@H]1CN(C(=O)c2nn(CC(=O)N3CCN(c4cc(F)c(F)cc4F)CC3)c3c2CCC3)C[C@H](C)O1` [Example 74, 2-{3-[(2R,6S)-2,6-dimethylmorpholine-4-carbonyl]-5,6-dihydrocyclopenta[c]pyrazol-1(4H)-yl}-1-[4-(2,4,5-trifluorophenyl)piperazin-1-yl]ethan-1-one] belongs 6.54; to `Cc1cccc(N2CCN(C(=O)Cn3nc(C(=O)N4CCC5NC(=O)OCC5C4)c4c3C[C@H]3C[C@@H]43)CC2)c1C` (stereo partly drawn) [Example 240, 6-[(3bR,4aR)-1-{2-[4-(2,3-dimethylphenyl)piperazin-1-yl]-2-oxoethyl}-3b,4,4a,5-tetrahydro-1H-cyclopropa[3,4]cyclopenta[1,2-c]pyrazole-3-carbonyl]octahydro-2H-pyrido[4,3-d][1,3]oxazin-2-one], 7.88.
